US8575158B2, “1-phenyl-substituted heterocyclyl derivatives and their use as prostaglandin D2 receptor modulators” (Actelion Pharmaceuticals Ltd., priority 2010, dated 2013)

Target: T1, hCRTH2 receptor (Homo sapiens, UniProt Q9Y5Y4)
T1 construct: expressed in transfected cells; host or cells: HEK293
T1 sequence (Q9Y5Y4 1-395): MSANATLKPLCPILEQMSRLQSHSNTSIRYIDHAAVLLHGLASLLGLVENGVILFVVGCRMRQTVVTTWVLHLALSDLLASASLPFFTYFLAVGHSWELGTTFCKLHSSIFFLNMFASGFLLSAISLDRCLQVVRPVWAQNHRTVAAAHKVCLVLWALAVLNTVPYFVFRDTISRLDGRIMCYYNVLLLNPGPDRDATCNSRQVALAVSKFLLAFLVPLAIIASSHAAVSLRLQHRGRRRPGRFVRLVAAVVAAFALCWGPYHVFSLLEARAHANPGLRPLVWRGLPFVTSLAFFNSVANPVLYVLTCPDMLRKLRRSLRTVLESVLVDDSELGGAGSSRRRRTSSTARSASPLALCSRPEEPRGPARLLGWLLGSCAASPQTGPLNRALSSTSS
Experiment: Radioligand displacement assay (3H-PGD2) on hCRTH2 receptor membranes
Format: binding
Details: antagonistic activity, 3H-PGD2 radioligand displacement, HEK293-hCRTH2 membranes

Question: Which IC50 does the source give for `COc1ccc([C@@H]2C[C@H]2C(=O)N2CCc3ccccc3C2c2cc(Cl)ccc2OCC(=O)O)cc1` (mixture of isomers) [Example 417] here?
Answer: 187 nM

Question: `O=C(O)COc1ccc(Cl)cc1C1c2ccccc2CCN1C(=O)[C@@H]1C[C@H]1c1ccc(F)cc1` (mixture of isomers) [Example 418] was tested. Which IC50 did it give?
Answer: 16.3 nM

Question: How did the IC50 turn out when `O=C(O)COc1ccc(Cl)cc1C1c2ccccc2CCN1C(=O)[C@@H]1C[C@H]1c1ccc(C(F)(F)F)cc1` (mixture of isomers) [Example 419] was run?
Answer: 958 nM

Question: How did the IC50 turn out when `Cc1ccc([C@@H]2C[C@H]2C(=O)N2CCc3ccccc3C2c2cc(Cl)ccc2OCC(=O)O)cc1` (mixture of isomers) [Example 420] was run?
Answer: 103 nM

Question: How did the IC50 turn out when `O=C(O)COc1ccc(Cl)cc1C1c2ccccc2CCN1C(=O)[C@@H]1C[C@H]1c1cccc(Cl)c1` (mixture of isomers) [Example 421] was run?
Answer: 24 nM

Question: `Cc1ccccc1[C@@H]1C[C@H]1C(=O)N1CCc2ccccc2C1c1cc(Cl)ccc1OCC(=O)O` (mixture of isomers) [Example 422] was tested. Which IC50 did it give?
Answer: 5.58 nM

Question: For `O=C(O)COc1ccc(Cl)cc1C1c2ccccc2CCN1C(=O)[C@@H]1C[C@H]1c1ccccc1C(F)(F)F` (mixture of isomers) [Example 423], which IC50 is on record?
Answer: 6.62 nM

Question: For `O=C(O)COc1ccc(Cl)cc1C1c2ccccc2CCN1C(=O)[C@@H]1C[C@H]1c1cccc(F)c1` (mixture of isomers) [Example 424], which IC50 is on record?
Answer: 12 nM

Question: `COc1cccc([C@@H]2C[C@H]2C(=O)N2CCc3ccccc3C2c2cc(Cl)ccc2OCC(=O)O)c1` (mixture of isomers) [Example 425] was tested. Which IC50 did it give?
Answer: 30.6 nM

Question: Which IC50 does the source give for `O=C(O)COc1ccc(Cl)cc1C1c2ccccc2CCN1C(=O)[C@@H]1C[C@H]1c1cccc(C(F)(F)F)c1` (mixture of isomers) [Example 426] here?
Answer: 93.8 nM

Question: Which IC50 does the source give for `Cc1cccc([C@@H]2C[C@H]2C(=O)N2CCc3ccccc3C2c2cc(Cl)ccc2OCC(=O)O)c1` (mixture of isomers) [Example 427] here?
Answer: 46.6 nM

Question: Which IC50 does the source give for `O=C(O)COc1ccc(Cl)cc1C1c2ccc(F)cc2CCN1C(=O)[C@@H]1C[C@H]1c1ccccc1` (mixture of isomers) [Example 428] here?
Answer: 1.33 nM

Question: `O=C(O)COc1ccc(Cl)cc1C1c2ccc(F)cc2CCN1C(=O)[C@@H]1C[C@H]1c1ccccc1C(F)(F)F` (mixture of isomers) [Example 429] was tested. Which IC50 did it give?
Answer: 2.21 nM

Question: Which IC50 does the source give for `Cc1ccccc1[C@@H]1C[C@H]1C(=O)N1CCc2cc(F)ccc2C1c1cc(Cl)ccc1OCC(=O)O` (mixture of isomers) [Example 431] here?
Answer: 3.56 nM

Question: With `Cc1ccc(OCC(=O)N2CCc3cc(F)ccc3C2c2cc(Cl)ccc2OCC(=O)O)c(C)n1` (racemic) [Example 432] as the molecule, how does the IC50 read?
Answer: 40.6 nM

Question: `COc1ccc2[nH]cc(CCC(=O)N3CCc4cc(F)ccc4C3c3cc(Cl)ccc3OCC(=O)O)c2c1` (racemic) [Example 433] was tested. Which IC50 did it give?
Answer: 90.1 nM

Question: `Cn1cc(CCC(=O)N2CCc3cc(F)ccc3C2c2cc(Cl)ccc2OCC(=O)O)c2ccccc21` (racemic) [Example 434] was tested. Which IC50 did it give?
Answer: 33.3 nM

Question: How did the IC50 turn out when `Cc1ccccc1CCC(=O)N1CCc2cc(F)ccc2C1c1cc(Cl)ccc1OCC(=O)O` (racemic) [Example 435] was run?
Answer: 46.5 nM

Question: For `O=C(O)COc1ccc(Cl)cc1C1c2ccc(F)cc2CCN1C(=O)CCCc1ccccc1F` (racemic) [Example 436], which IC50 is on record?
Answer: 5.73 nM

Question: Which IC50 does the source give for `O=C(O)COc1ccc(Cl)cc1C1c2ccc(F)cc2CCN1C(=O)COCc1ccccc1Cl` (racemic) [Example 437] here?
Answer: 5.23 nM

Question: `O=C(O)COc1ccc(Cl)cc1C1c2ccc(F)cc2CCN1C(=O)CCOc1ccc(F)cc1` (racemic) [Example 438] was tested. Which IC50 did it give?
Answer: 91.1 nM

Question: For `CN(CC(=O)N1CCc2ccccc2C1c1cc(Cl)ccc1OCC(=O)O)c1ccccc1` (racemic) [Example 439], which IC50 is on record?
Answer: 379 nM

Question: For `O=C(O)COc1ccc(Cl)cc1C1c2ccccc2CCN1C(=O)CCCN1CCCC1=O` (racemic) [Example 440], which IC50 is on record?
Answer: 55.7 nM

Question: Which IC50 does the source give for `O=C(O)COc1ccc(Cl)cc1C1c2ccccc2CCN1C(=O)CCN1CCc2ccccc21` (racemic) [Example 441] here?
Answer: 12.7 nM

Question: Which IC50 does the source give for `O=C(O)COc1ccc(Cl)cc1C1c2ccccc2CCN1C(=O)CCN1C(=O)COc2ccc(Cl)cc21` (racemic) [Example 442] here?
Answer: 347 nM

Question: How did the IC50 turn out when `O=C(O)COc1ccc(Cl)cc1C1c2ccccc2CCN1C(=O)CNc1ccccc1` (racemic) [Example 443] was run?
Answer: 855 nM

Question: For `O=C(O)COc1ccc(Cl)cc1C1c2ccccc2CCN1C(=O)CN1Cc2ccccc2C1` (racemic) [Example 444], which IC50 is on record?
Answer: 667 nM

Question: Which IC50 does the source give for `O=C(O)COc1ccc(Cl)cc1C1c2ccccc2CCN1C(=O)CCN1Cc2ccccc2C1=O` (racemic) [Example 445] here?
Answer: 130 nM

Question: With `Cc1cc2ccccc2n1CCC(=O)N1CCc2ccccc2C1c1cc(Cl)ccc1OCC(=O)O` (racemic) [Example 446] as the molecule, how does the IC50 read?
Answer: 175 nM

Question: With `Cc1cn(CCC(=O)N2CCc3ccccc3C2c2cc(Cl)ccc2OCC(=O)O)c2ccccc12` (racemic) [Example 447] as the molecule, how does the IC50 read?
Answer: 13.9 nM

Question: With `O=C(O)COc1ccc(Cl)cc1C1c2ccccc2CCN1C(=O)CCn1ncc2ccccc21` (racemic) [Example 448] as the molecule, how does the IC50 read?
Answer: 35.4 nM

Question: For `O=C(O)COc1ccc(Cl)cc1C1c2ccccc2CCN1C(=O)CCN1CCCc2ccccc21` (racemic) [Example 449], which IC50 is on record?
Answer: 26.1 nM

Question: How did the IC50 turn out when `CC(C)COCCC(=O)N1CCc2ccccc2C1c1cc(Cl)ccc1OCC(=O)O` (racemic) [Example 450] was run?
Answer: 403 nM

Question: With `O=C(O)COc1ccc(Cl)cc1C1c2ccccc2CCN1C(=O)CCn1cnc2ccccc21` (racemic) [Example 451] as the molecule, how does the IC50 read?
Answer: 64.1 nM

Question: For `Cc1csc(=O)n1CCC(=O)N1CCc2ccccc2C1c1cc(Cl)ccc1OCC(=O)O` (racemic) [Example 452], which IC50 is on record?
Answer: 500 nM

Question: `O=C(O)COc1ccc(Cl)cc1C1c2ccccc2CCN1C(=O)CCN1CCSC1=O` (racemic) [Example 453] was tested. Which IC50 did it give?
Answer: 312 nM

Question: `Cc1ccc(CCC(=O)N2CCc3ccccc3C2c2cc(Cl)ccc2OCC(=O)O)c(C)c1` (racemic) [Example 454] was tested. Which IC50 did it give?
Answer: 69.6 nM

Question: Which IC50 does the source give for `Cc1ccc(CCC(=O)N2CCc3ccccc3C2c2cc(Cl)ccc2OCC(=O)O)c(C)n1` (racemic) [Example 455] here?
Answer: 200 nM

Question: Which IC50 does the source give for `Cc1ccc(OCC(=O)N2CCc3ccccc3C2c2cc(Cl)ccc2OCC(=O)O)c(C)c1` (racemic) [Example 456] here?
Answer: 43.6 nM

Question: With `Cc1c(CCC(=O)N2CCc3ccccc3C2c2cc(Cl)ccc2OCC(=O)O)c2ccccc2n1C` (racemic) [Example 457] as the molecule, how does the IC50 read?
Answer: 60.8 nM

Question: With `COc1ccc2c(c1)c(CCC(=O)N1CCc3ccccc3C1c1cc(Cl)ccc1OCC(=O)O)cn2C` (racemic) [Example 458] as the molecule, how does the IC50 read?
Answer: 47.5 nM

Question: With `COc1ccc2c(ccn2CCC(=O)N2CCc3ccccc3C2c2cc(Cl)ccc2OCC(=O)O)c1` (racemic) [Example 459] as the molecule, how does the IC50 read?
Answer: 160 nM

Question: For `O=C(O)COc1ccc(Cl)cc1C1c2ccccc2CCN1C(=O)CCc1c[nH]c2ccccc12` (racemic) [Example 463], which IC50 is on record?
Answer: 12.1 nM

Question: `CC1(C)CC1C(=O)N1CCc2ccccc2C1c1cc(Cl)ccc1OCC(=O)O` (racemic) [Example 466, (±)-{4-Chloro-2-[2-(2,2-dimethyl-cyclopropanecarbonyl)-1,2,3,4-tetrahydro-isoquinolin-1-yl]-phenoxy}-acetic acid] was tested. Which IC50 did it give?
Answer: 24.2 nM

Question: For `Cc1nc(C)c(C2CC2C(=O)N2CCc3ccccc3C2c2cc(Cl)ccc2OCC(=O)O)s1` (racemic) [Example 467, (±)-(4-Chloro-2-{2-[2-(2,4-dimethyl-thiazol-5-yl)-cyclopropanecarbonyl]-1,2,3,4-tetrahydro-isoquinolin-1-yl}-phenoxy)-acetic acid], which IC50 is on record?
Answer: 396 nM

Question: Which IC50 does the source give for `Cc1ccc(OCC(=O)N2CCc3ccccc3C2c2cc(Cl)ccc2OCC(=O)O)cn1` (racemic) [Example 468] here?
Answer: 759 nM

Question: How did the IC50 turn out when `Cc1ncccc1OCC(=O)N1CCc2ccccc2C1c1cc(Cl)ccc1OCC(=O)O` (racemic) [Example 469] was run?
Answer: 132 nM

Question: With `O=C(O)COc1ccc(Cl)cc1C1c2ccccc2CCN1C(=O)COc1cncc(Cl)c1` (racemic) [Example 470] as the molecule, how does the IC50 read?
Answer: 152 nM

Question: For `O=C(O)COc1ccc(Cl)cc1C1c2ccccc2CCN1C(=O)COc1cccnc1Cl` (racemic) [Example 471], which IC50 is on record?
Answer: 87.6 nM

Question: Which IC50 does the source give for `O=C(O)COc1ccc(Cl)cc1C1c2ccccc2CCN1C(=O)COc1ccc(Cl)nc1` (racemic) [Example 472] here?
Answer: 109 nM

Question: With `O=C(O)COc1ccc(Cl)cc1C1c2ccccc2CCN1C(=O)COc1cc(Cl)nc(Cl)c1` (racemic) [Example 473] as the molecule, how does the IC50 read?
Answer: 650 nM

Question: How did the IC50 turn out when `Cc1cncc(OCC(=O)N2CCc3ccccc3C2c2cc(Cl)ccc2OCC(=O)O)c1` (racemic) [Example 474] was run?
Answer: 198 nM

Question: Which IC50 does the source give for `O=C(O)COc1ccc(Cl)cc1C1c2ccccc2CCN1C(=O)COc1cccnc1OCCO` (racemic) [Example 475] here?
Answer: 337 nM

Question: How did the IC50 turn out when `COc1ccc(OCC(=O)N2CCc3ccccc3C2c2cc(Cl)ccc2OCC(=O)O)c(OC)n1` (racemic) [Example 476] was run?
Answer: 164 nM

Question: How did the IC50 turn out when `COc1cncc(OCC(=O)N2CCc3ccccc3C2c2cc(Cl)ccc2OCC(=O)O)c1` (racemic) [Example 477] was run?
Answer: 288 nM

Question: How did the IC50 turn out when `O=C(O)COc1ccc(Cl)cc1C1c2ccccc2CCN1C(=O)COc1cncc(F)c1` (racemic) [Example 478] was run?
Answer: 232 nM

Question: For `NC(=O)c1ncccc1OCC(=O)N1CCc2ccccc2C1c1cc(Cl)ccc1OCC(=O)O` (racemic) [Example 479], which IC50 is on record?
Answer: 199 nM

Question: How did the IC50 turn out when `N#Cc1ncccc1OCC(=O)N1CCc2ccccc2C1c1cc(Cl)ccc1OCC(=O)O` (racemic) [Example 480] was run?
Answer: 104 nM

Question: Which IC50 does the source give for `O=C(O)COc1ccc(Cl)cc1C1c2ccccc2CCN1C(=O)COc1ccc(C(F)(F)F)nc1` (racemic) [Example 481] here?
Answer: 143 nM

Question: How did the IC50 turn out when `O=C(O)COc1ccc(Cl)cc1C1c2ccccc2CCN1C(=O)COc1cccnc1F` (racemic) [Example 482] was run?
Answer: 199 nM

Question: Which IC50 does the source give for `Cn1cnc2cc(OCC(=O)N3CCc4ccccc4C3c3cc(Cl)ccc3OCC(=O)O)cnc21` (racemic) [Example 483] here?
Answer: 470 nM

Question: For `COc1ncc(C)cc1OCC(=O)N1CCc2ccccc2C1c1cc(Cl)ccc1OCC(=O)O` (racemic) [Example 484], which IC50 is on record?
Answer: 161 nM

Question: How did the IC50 turn out when `COc1cc(OCC(=O)N2CCc3ccccc3C2c2cc(Cl)ccc2OCC(=O)O)cnc1OC` (racemic) [Example 485] was run?
Answer: 316 nM
